Laboratory results: ChEMBL document CHEMBL4251681, “Isochromophilones A-F, Cytotoxic Chloroazaphilones from the Marine Mangrove Endophytic Fungus Diaporthe sp. SCSIO 41011” (J Nat Prod, 2018)
Active and inactive are the calls of the source. No cut-off for these calls is given here.

Tests used:
ACHN = experiment: Cytotoxicity against human ACHN cells after 72 hrs by CCK-8 assay; assay type: functional, cell-based
786-0 [1] = experiment: Cytotoxicity against human 786-O cells after 72 hrs by CCK-8 assay; assay type: functional, cell-based; details: 786-0, 72 h
OS-RC-2 = experiment: Cytotoxicity against human OS-RC2 cells after 72 hrs by CCK-8 assay; assay type: functional, cell-based; details: OS-RC-2, 72 h
786-0 [2] = experiment: Induction of apoptosis in human 786-O cells assessed as viable cells at 5 uM after 72 hrs by annexin V-FITC/propidium iodide staining based flow cytometry (reference value: 100%); assay type: functional; details: 786-0, 72 h, read-out: Activity
786-0 [3] = experiment: Induction of apoptosis in human 786-O cells assessed as late apoptotic cells at 10 uM after 48 hrs by annexin V-FITC/propidium iodide staining based flow cytometry (reference value: 0%); assay type: functional
786-0 [4] = experiment: Induction of apoptosis in human 786-O cells assessed as late apoptotic cells at 10 uM after 72 hrs by annexin V-FITC/propidium iodide staining based flow cytometry (reference value: 0%); assay type: functional
786-0 [5] = experiment: Induction of apoptosis in human 786-O cells assessed as early apoptotic cells at 5 uM after 72 hrs by annexin V-FITC/propidium iodide staining based flow cytometry (reference value: 0%); assay type: functional
786-0 [6] = experiment: Induction of apoptosis in human 786-O cells assessed as early apoptotic cells at 2.5 uM after 72 hrs by annexin V-FITC/propidium iodide staining based flow cytometry (reference value: 0%); assay type: functional
786-0 [7] = experiment: Induction of apoptosis in human 786-O cells assessed as early apoptotic cells at 5 uM after 24 hrs by annexin V-FITC/propidium iodide staining based flow cytometry (reference value: 0%); assay type: functional
786-0 [8] = experiment: Induction of apoptosis in human 786-O cells assessed as necrotic cells at 2.5 uM after 72 hrs by annexin V-FITC/propidium iodide staining based flow cytometry (reference value: 0%); assay type: functional
786-0 [9] = experiment: Induction of apoptosis in human 786-O cells assessed as late apoptotic cells at 5 uM after 48 hrs by annexin V-FITC/propidium iodide staining based flow cytometry (reference value: 0%); assay type: functional
786-0 [10] = experiment: Induction of apoptosis in human 786-O cells assessed as early apoptotic cells at 10 uM after 48 hrs by annexin V-FITC/propidium iodide staining based flow cytometry (reference value: 0%); assay type: functional
786-0 [11] = experiment: Induction of apoptosis in human 786-O cells assessed as necrotic cells at 5 uM after 24 hrs by annexin V-FITC/propidium iodide staining based flow cytometry (reference value: 0%); assay type: functional
786-0 [12] = experiment: Induction of apoptosis in human 786-O cells assessed as viable cells at 10 uM after 24 hrs by annexin V-FITC/propidium iodide staining based flow cytometry (reference value: 100%); assay type: functional; details: 786-0, 24 h, read-out: Activity
786-0 [13] = experiment: Induction of apoptosis in human 786-O cells assessed as early apoptotic cells at 2.5 uM after 48 hrs by annexin V-FITC/propidium iodide staining based flow cytometry (reference value: 0%); assay type: functional
786-0 [14] = experiment: Induction of apoptosis in human 786-O cells assessed as viable cells at 5 uM after 24 hrs by annexin V-FITC/propidium iodide staining based flow cytometry (reference value: 100%); assay type: functional; details: 786-0, 24 h, read-out: Activity
786-0 [15] = experiment: Induction of apoptosis in human 786-O cells assessed as necrotic cells at 5 uM after 48 hrs by annexin V-FITC/propidium iodide staining based flow cytometry (reference value: 0%); assay type: functional
786-0 [16] = experiment: Induction of apoptosis in human 786-O cells assessed as late apoptotic cells at 10 uM after 24 hrs by annexin V-FITC/propidium iodide staining based flow cytometry (reference value: 0%); assay type: functional
786-0 [17] = experiment: Induction of apoptosis in human 786-O cells assessed as viable cells at 2.5 uM after 24 hrs by annexin V-FITC/propidium iodide staining based flow cytometry (reference value: 100%); assay type: functional; details: 786-0, 24 h, read-out: Activity
786-0 [18] = experiment: Induction of apoptosis in human 786-O cells assessed as early apoptotic cells at 10 uM after 24 hrs by annexin V-FITC/propidium iodide staining based flow cytometry (reference value: 0%); assay type: functional
786-0 [19] = experiment: Induction of apoptosis in human 786-O cells assessed as viable cells at 5 uM after 48 hrs by annexin V-FITC/propidium iodide staining based flow cytometry (reference value: 100%); assay type: functional; details: 786-0, 48 h, read-out: Activity
786-0 [20] = experiment: Induction of apoptosis in human 786-O cells assessed as necrotic cells at 10 uM after 24 hrs by annexin V-FITC/propidium iodide staining based flow cytometry (reference value: 0%); assay type: functional
786-0 [21] = experiment: Induction of apoptosis in human 786-O cells assessed as early apoptotic cells at 10 uM after 72 hrs by annexin V-FITC/propidium iodide staining based flow cytometry (reference value: 0%); assay type: functional
786-0 [22] = experiment: Induction of apoptosis in human 786-O cells assessed as necrotic cells at 5 uM after 72 hrs by annexin V-FITC/propidium iodide staining based flow cytometry (reference value: 0%); assay type: functional
786-0 [23] = experiment: Induction of apoptosis in human 786-O cells assessed as viable cells at 10 uM after 72 hrs by annexin V-FITC/propidium iodide staining based flow cytometry (reference value: 100%); assay type: functional; details: 786-0, 72 h, read-out: Activity
786-0 [24] = experiment: Induction of apoptosis in human 786-O cells assessed as late apoptotic cells at 2.5 uM after 48 hrs by annexin V-FITC/propidium iodide staining based flow cytometry (reference value: 0%); assay type: functional
786-0 [25] = experiment: Induction of apoptosis in human 786-O cells assessed as viable cells at 2.5 uM after 72 hrs by annexin V-FITC/propidium iodide staining based flow cytometry (reference value: 100%); assay type: functional; details: 786-0, 72 h, read-out: Activity
786-0 [26] = experiment: Cell cycle arrest in human 786-O cells at 2.5 to 10 uM after 24 hrs by […] based flow cytometry; assay type: functional
786-0 [27] = experiment: Induction of apoptosis in human 786-O cells assessed as late apoptotic cells at 5 uM after 72 hrs by annexin V-FITC/propidium iodide staining based flow cytometry (reference value: 0%); assay type: functional
786-0 [28] = experiment: Induction of apoptosis in human 786-O cells assessed as necrotic cells at 2.5 uM after 24 hrs by annexin V-FITC/propidium iodide staining based flow cytometry (reference value: 0%); assay type: functional
786-0 [29] = experiment: Induction of apoptosis in human 786-O cells assessed as necrotic cells at 10 uM after 48 hrs by annexin V-FITC/propidium iodide staining based flow cytometry (reference value: 0%); assay type: functional
786-0 [30] = experiment: Induction of apoptosis in human 786-O cells assessed as early apoptotic cells at 5 uM after 48 hrs by annexin V-FITC/propidium iodide staining based flow cytometry (reference value: 0%); assay type: functional
786-0 [31] = experiment: Induction of apoptosis in human 786-O cells assessed as late apoptotic cells at 5 uM after 24 hrs by annexin V-FITC/propidium iodide staining based flow cytometry (reference value: 0%); assay type: functional
786-0 [32] = experiment: Induction of apoptosis in human 786-O cells assessed as viable cells at 2.5 uM after 48 hrs by annexin V-FITC/propidium iodide staining based flow cytometry (reference value: 100%); assay type: functional; details: 786-0, 48 h, read-out: Activity
786-0 [33] = experiment: Induction of apoptosis in human 786-O cells assessed as late apoptotic cells at 2.5 uM after 24 hrs by annexin V-FITC/propidium iodide staining based flow cytometry (reference value: 0%); assay type: functional
786-0 [34] = experiment: Induction of apoptosis in human 786-O cells assessed as early apoptotic cells at 2.5 uM after 24 hrs by annexin V-FITC/propidium iodide staining based flow cytometry (reference value: 0%); assay type: functional
786-0 [35] = experiment: Induction of apoptosis in human 786-O cells assessed as late apoptotic cells at 2.5 uM after 72 hrs by annexin V-FITC/propidium iodide staining based flow cytometry (reference value: 0%); assay type: functional
786-0 [36] = experiment: Induction of apoptosis in human 786-O cells assessed as necrotic cells at 10 uM after 72 hrs by annexin V-FITC/propidium iodide staining based flow cytometry (reference value: 0%); assay type: functional
786-0 [37] = experiment: Induction of apoptosis in human 786-O cells assessed as viable cells at 10 uM after 48 hrs by annexin V-FITC/propidium iodide staining based flow cytometry (reference value: 100%); assay type: functional; details: 786-0, 48 h, read-out: Activity
786-0 [38] = experiment: Induction of apoptosis in human 786-O cells assessed as necrotic cells at 2.5 uM after 48 hrs by annexin V-FITC/propidium iodide staining based flow cytometry (reference value: 0%); assay type: functional

For `CC[C@H](C)/C=C(C)/C=C/C1=CC2=C(Cl)[C@H](O)[C@]3(C)OC(=O)[C@H](C(C)=O)[C@H]3C2=CO1`, the IC50 (ACHN) was 27 µM, the IC50 (786-0 [1]) was 34 µM and the IC50 (OS-RC-2) was 45 µM.

`CC[C@H](C)/C=C(C)/C=C/C1=CC2=C(Cl)C(=O)[C@](C)(O)[C@@H](CC(C)=O)C2=CO1` gave an IC50 (ACHN) of 4.4 µM, an IC50 (786-0 [1]) of 3 µM and an IC50 (OS-RC-2) of 3.9 µM.

`CC[C@H](C)/C=C(C)/C=C/C1=CC2=C(Cl)[C@H](OC)[C@]3(C)O[C@@](C)(OC)[C@H](C(C)=O)[C@H]3C2=CO1` was tested, and the viability at 5 µM (786-0 [2]) was 85.9%, the Activity (786-0 [3]) was 45.5% and the Activity (786-0 [4]) was 70.7%. For the same compound, the Activity (786-0 [5]) was 3.5%, the Activity (786-0 [6]) was 1.5% and the Activity (786-0 [7]) was 0.6%. The Activity (786-0 [8]) was 6%, the Activity (786-0 [9]) was 2.3% and the IC50 (ACHN) was 14 µM. It also gave an Activity (786-0 [10]) of 11.2%, an Activity (786-0 [11]) of 10.4% and a viability at 10 µM (786-0 [12]) of 60.9%. It also gave an Activity (786-0 [13]) of 2%, an IC50 (786-0 [1]) of 8.9 µM and a viability at 5 µM (786-0 [14]) of 87%. For the same compound, the Activity (786-0 [15]) was 8.9%, the Activity (786-0 [16]) was 7.5% and the viability at 2.5 µM (786-0 [17]) was 93.3%. For the same compound, the Activity (786-0 [18]) was 2.7%, the viability at 5 µM (786-0 [19]) was 86.1% and the Activity (786-0 [20]) was 28.8%. For the same compound, the Activity (786-0 [21]) was 27.4%, the Activity (786-0 [22]) was 6.6% and the viability at 10 µM (786-0 [23]) was 0.5%. The Activity (786-0 [24]) was 1.7%, the viability at 2.5 µM (786-0 [25]) was 90.7% and the Activity (786-0 [26]) was “inactive”. It also gave an Activity (786-0 [27]) of 4%, an IC50 (OS-RC-2) of 13 µM and an Activity (786-0 [28]) of 4.4%. The Activity (786-0 [29]) was 36.7%, the Activity (786-0 [30]) was 2.8% and the Activity (786-0 [31]) was 2%. For the same compound, the viability at 2.5 µM (786-0 [32]) was 93.7%, the Activity (786-0 [33]) was 1.5% and the Activity (786-0 [34]) was 0.8%. The Activity (786-0 [35]) was 1.8%, the Activity (786-0 [36]) was 1.4% and the viability at 10 µM (786-0 [37]) was 6.6%. The Activity (786-0 [38]) was 2.5%.

`CC[C@H](C)/C=C(C)/C=C/C1=CC2=C(Cl)C(=O)[C@](C)(O)[C@@H](O)[C@H]2CO1` showed an IC50 (ACHN) of over 50 µM, an IC50 (786-0 [1]) of 48 µM and an IC50 (OS-RC-2) of 4.9 µM.

`CC[C@H](C)/C=C(C)/C=C/C1=CC2=C(Cl)[C@H](OC)[C@]3(C)O[C@](C)(OC)[C@H](C(C)=O)[C@H]3C2=CO1` showed an IC50 (ACHN) of over 50 µM, an IC50 (786-0 [1]) of 38 µM and an IC50 (OS-RC-2) of 44 µM.

Work on `CC[C@H](C)/C=C(C)/C=C/C1=CC2=C(Cl)C(=O)[C@]3(C)OC(=O)/C(=C(\C)O)[C@]3(O)[C@@]23O[C@H]3O1` yielded an IC50 (ACHN) of 13 µM, an IC50 (786-0 [1]) of 10 µM and an IC50 (OS-RC-2) of 38 µM.
